In US12391679B2, “Benzamide-substituted bicyclic imidazo- and pyrazolo-fused -pyridine, -pyrimide, and -pyridazine compounds for treatment of inflammatory diseases” (ONCO3R Therapeutics BV, priority 2019, dated 2025) one finds EC50 data, which are given here for 21 compounds.

In the assay the test system is LPS-induced TNFα in monocytes. Put plainly: Monocytes assay: LPS-triggered TNFα (ELISA). The format is cell-based, human. The settings on record: LPS-triggered TNFα inhibition. Put shortly: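 CD14+ monocytes were magnetically isolated from human buffy-coat PBMCs, preincubated with compound 1 h at 37 °C (0.2% DMSO), then stimulated with LPS at 200 ng/mL for 4 h. Supernatant TNFα was measured by luminescent sandwich ELISA; percentage inhibition was calculated against controls for each concentration.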
On the technique in general: An ELISA detects its analyte on a solid surface through an enzyme-linked reagent.

One may read the pEC50 as −log10 of the EC50, conventionally taken in molar units. Read a high pEC50 as a small EC50.

Each structure is given as a SMILES string. pEC50: −log10 of the molar value.

As for `COc1cc(-c2cnn3cc(C(C)(C)COS(C)(=O)=O)ccc23)cc(OC(F)F)c1C(=O)N[C@@H]1C[C@@H]1F` [Cpd 267, [2-[3-[3-(difluoromethoxy)-4-[[(1R,2S)-2-fluorocyclopropyl]carbamoyl]-5-methoxy-phenyl]pyrazolo[1,5-a]pyridin-6-yl]-2-methyl-propyl]methanesulfonate], the pEC50 (Homo sapiens, Monocyte) was 7.00 to 10.00.

As to `COc1cc(-c2cnc3cc(C4(C#N)COC4)ccn23)cc(OC(F)F)c1C(=O)NC1CC1` [Cpd 117, 4-[7-(3-cyanooxetan-3-yl)imidazo[1,2-a]pyridin-3-yl]-N-cyclopropyl-2-(difluoromethoxy)-6-methoxy-benzamide], the pEC50 (Homo sapiens, Monocyte) was 6.00 to 7.00.

As to `COc1cc(-c2cnc3cc([C@@](C)(O)C4CC4)ccn23)cc(OC(F)F)c1C(=O)NC1CC1` (single isomer, unassigned) [Cpd 162, N-cyclopropyl-4-[7-(1-cyclopropyl-1-hydroxy-ethyl)imidazo[1,2-a]pyridin-3-yl]-2-(difluoromethoxy)-6-methoxy-benzamide], under “Homo sapiens, Monocyte”, the pEC50 was 6.00 to 7.00.

In the case of `COc1cc(-c2cnc3cc(C(C)N4CCCCC4)ccn23)cc(OC(F)F)c1C(=O)NC1CC1` (stereo not drawn) [Cpd 146, N-cyclopropyl-2-(difluoromethoxy)-6-methoxy-4-[7-[1-(1-piperidyl)ethyl]imidazo[1,2-a]pyridin-3-yl]benzamide], the pEC50 (Homo sapiens, Monocyte) is 5.30 to 6.00.

With `COc1cc(-c2cnc3cc(C4(O)CCC4)ccn23)cc(OC(F)F)c1C(=O)N[C@@H]1C[C@@H]1F` [Cpd 205, 2-(difluoromethoxy)-N-[(1R,2S)-2-fluorocyclopropyl]-4-[7-(1-hydroxycyclobutyl)imidazo[1,2-a]pyridin-3-yl]-6-methoxy-benzamide], the pEC50 (Homo sapiens, Monocyte) is 6.00 to 7.00.

In turn, `CC[C@](C)(O)c1ccn2c(-c3cc(OC)c(C(=O)NC4CC4)c(OC(F)F)c3)cnc2c1` (single isomer, unassigned) [Cpd 165, N-cyclopropyl-2-(difluoromethoxy)-4-[7-(1-hydroxy-1-methyl-propyl)imidazo[1,2-a]pyridin-3-yl]-6-methoxy-benzamide] showed a pEC50 of 6.00 to 7.00.

On to `COc1cc(-c2cnc3cc(C(C)(C)C(C)O)ccn23)cc(OC(F)F)c1C(=O)NC1CC1` (stereo not drawn) [Cpd 172, N-cyclopropyl-2-(difluoromethoxy)-4-[7-(2-hydroxy-1,1-dimethyl-propyl)imidazo[1,2-a]pyridin-3-yl]-6-methoxy-benzamide], for which, for the setting “Homo sapiens, Monocyte”, the pEC50 was 6.00 to 7.00.

Regarding `CC[C@](C)(O)c1ccn2c(-c3cc(OC)c(C(=O)NC4CC4)c(OC(F)F)c3)cnc2c1` (single isomer, unassigned) [Cpd 164, N-cyclopropyl-2-(difluoromethoxy)-4-[7-(1-hydroxy-1-methyl-propyl)imidazo[1,2-a]pyridin-3-yl]-6-methoxy-benzamide], the pEC50 (Homo sapiens, Monocyte) was 6.00 to 7.00.

Turning to `COc1cc(-c2cnc3cc([C@@](C)(C#N)CO)ccn23)cc(OC(F)F)c1C(=O)NC1CC1` (single isomer, unassigned) [Cpd 189, 4-[7-(1-cyano-2-hydroxy-1-methyl-ethyl)imidazo[1,2-a]pyridin-3-yl]-N-cyclopropyl-2-(difluoromethoxy)-6-methoxy-benzamide], the pEC50 was 6.00 to 7.00.

`COc1cc(-c2cnc3cc(C4(O)CCC4)ccn23)cc(OC(F)F)c1C(=O)NC1CC1` [Cpd 173, N-cyclopropyl-2-(difluoromethoxy)-4-[7-(1-hydroxycyclobutyl)imidazo[1,2-a]pyridin-3-yl]-6-methoxy-benzamide] showed a negative-log EC50 (pEC50) (Homo sapiens, Monocyte) of 6.00 to 7.00.

Regarding `COc1cc(-c2cnc3cc(C(C)(C)C#N)ccn23)cc(OC(F)F)c1C(=O)NC1CC1` [Cpd 19, 4-[7-(1-cyano-1-methyl-ethyl)imidazo[1,2-a]pyridin-3-yl]-N-cyclopropyl-2-(difluoromethoxy)-6-methoxy-benzamide], the pEC50 (Homo sapiens, Monocyte) was 6.00 to 7.00.

`COc1cc(-c2cnc3cc(C(C)(C)C#N)ccn23)cc(OC(F)F)c1C(=O)N1CC(F)C1` [Cpd 96, 2-[3-[3-(difluoromethoxy)-4-(3-fluoroazetidine-1-carbonyl)-5-methoxy-phenyl]imidazo[1,2-a]pyridin-7-yl]-2-methyl-propanenitrile]: the pEC50 (Homo sapiens, Monocyte) is 6.00 to 7.00.

For the compound `COc1cc(-c2cnc3cc(C4(C#N)CCOCC4)ccn23)cc(OC)c1C(=O)NCC(F)(F)F` [Cpd 107, 4-[7-(4-cyanotetrahydropyran-4-yl)imidazo[1,2-a]pyridin-3-yl]-2,6-dimethoxy-N-(2,2,2-trifluoroethyl)benzamide], the pEC50 (Homo sapiens, Monocyte) was 6.00 to 7.00.

For `COc1cc(-c2cnc3cc(C4CCCN(C(=O)OC(C)(C)C)C4)ccn23)cc(OC(F)F)c1C(=O)NC1CC1` (stereo not drawn) [Cpd 64, tert-butyl 3-[3-[4-(cyclopropylcarbamoyl)-3-(difluoromethoxy)-5-methoxy-phenyl]imidazo[1,2-a]pyridin-7-yl]piperidine-1-carboxylate], the pEC50 (Homo sapiens, Monocyte) was 6.00 to 7.00.

Compound `COc1cc(-c2cnn3cc(C(C)(C)O)ccc23)cc(OC(F)F)c1C(=O)N[C@@H]1C[C@@H]1F` [Cpd 227, 2-(difluoromethoxy)-N-[(1R,2S)-2-fluorocyclopropyl]-4-[6-(1-hydroxy-1-methyl-ethyl)pyrazolo[1,5-a]pyridin-3-yl]-6-methoxy-benzamide] gave a pEC50 (Homo sapiens, Monocyte) of 6.00 to 7.00.

As for `COc1cc(-c2cnn3cc(C4(C#N)CC4)ccc23)cc(OC(F)F)c1C(=O)N[C@@H]1C[C@@H]1F` [Cpd 235, 4-[6-(1-cyanocyclopropyl)pyrazolo[1,5-a]pyridin-3-yl]-2-(difluoromethoxy)-N-[(1R,2S)-2-fluorocyclopropyl]-6-methoxy-benzamide], the negative-log EC50 (pEC50) (Homo sapiens, Monocyte) was 7.00 to 10.00.

With `COc1cc(-c2cnc3cc(C4(C#N)CCOC4)ccn23)cc(OC(F)F)c1C(=O)NC1CC1` (stereo not drawn) [Cpd 123, 4-[7-(3-cyanotetrahydrofuran-3-yl)imidazo[1,2-a]pyridin-3-yl]-N-cyclopropyl-2-(difluoromethoxy)-6-methoxy-benzamide], the pEC50 (Homo sapiens, Monocyte) is 6.00 to 7.00.

With `COc1cc(-c2cnc3cc(C(C)(C)CN)ccn23)cc(OC(F)F)c1C(=O)NC1CC1` [Cpd 93, 4-[7-(2-amino-1,1-dimethyl-ethyl)imidazo[1,2-a]pyridin-3-yl]-N-cyclopropyl-2-(difluoromethoxy)-6-methoxy-benzamide], the pEC50 (Homo sapiens, Monocyte) is 6.00 to 7.00.

With `COc1cc(-c2cnc3cc(C(C)(C)O)ccn23)cc(OC(F)F)c1C(=O)N[C@@H]1C[C@@H]1F` [Cpd 211, 2-(difluoromethoxy)-N-[(1R,2S)-2-fluorocyclopropyl]-4-[7-(1-hydroxy-1-methyl-ethyl)imidazo[1,2-a]pyridin-3-yl]-6-methoxy-benzamide], for the setting “Homo sapiens, Monocyte”, the pEC50 was 6.00 to 7.00.

`[2H]C([2H])([2H])C(C#N)(c1ccc2c(-c3cc(OC)c(C(=O)N[C@@H]4C[C@@H]4F)c(OC(F)F)c3)cnn2c1)C([2H])([2H])[2H]` [Cpd 275, 4-[6-[1-cyano-2,2,2-trideuterio-1-(trideuteriomethyl)ethyl]pyrazolo[1,5-a]pyridin-3-yl]-2-(difluoromethoxy)-N-[(1R,2S)-2-fluorocyclopropyl]-6-methoxy-benzamide] showed a pEC50 (Homo sapiens, Monocyte) of 6.00 to 7.00.

In the case of `COc1cc(-c2cnn3cc(C4COC4)ccc23)cc(OC(F)F)c1C(=O)N[C@@H]1C[C@@H]1F` [Cpd 218, 2-(difluoromethoxy)-N-[(1R,2S)-2-fluorocyclopropyl]-6-methoxy-4-[6-(oxetan-3-yl)pyrazolo[1,5-a]pyridin-3-yl]benzamide], the pEC50 (Homo sapiens, Monocyte) was 7.00 to 10.00.
